From ChEMBL document CHEMBL5352410, “Discovery of novel selenium-containing azole derivatives as antifungal agents by exploiting the hydrophobic cleft of CYP51” (Eur J Med Chem, 2022)
≈ marks a conversion by molar mass, not a printed value.

Tests used:
[1] = Cytotoxicity against human HL-60 cells by MTT assay; assay type: toxicity, cell-based
[2] = Cytotoxicity against human PC-3 cells by MTT assay; assay type: toxicity, cell-based
Candida albicans [3] = experiment: Fungicidal activity against Candida albicans; assay type: functional
Candida albicans [4] = experiment: Fungicidal activity against FCZ-resistant Candida albicans CaR; assay type: functional
Candida albicans [5] = experiment: Fungicidal activity against FCZ-resistant Candida albicans 17#; assay type: functional
Pichia kudriavzevii = experiment: Antifungal activity against Pichia kudriavzevii by CLSI based broth microdilution method; assay type: functional
Candida albicans [6] = experiment: Antifungal activity against FCZ-resistant Candida albicans 904 by CLSI based broth microdilution method; assay type: functional
Candida albicans [7] = experiment: Fungicidal activity against FCZ-resistant Candida albicans 632; assay type: functional
Candida albicans [8] = experiment: Fungicidal activity against FCZ-resistant Candida albicans 901; assay type: functional
Candida albicans [9] = experiment: Antifungal activity against FCZ-resistant Candida albicans 17# by CLSI based broth microdilution method; assay type: functional
Cryptococcus neoformans = experiment: Antifungal activity against Cryptococcus neoformans by CLSI based broth microdilution method; assay type: functional
Candida albicans [10] = experiment: Antifungal activity against FCZ-resistant Candida albicans 632 by CLSI based broth microdilution method; assay type: functional
Candida albicans [11] = experiment: Antifungal activity against FCZ-resistant Candida albicans 901 by CLSI based broth microdilution method; assay type: functional
Candida parapsilosis = experiment: Antifungal activity against Candida parapsilosis by CLSI based broth microdilution method; assay type: functional; conditions: Lodderomyces parapsilosis
Candida albicans [12] = experiment: Fungicidal activity against FCZ-resistant Candida albicans 904; assay type: functional
Candida albicans [13] = experiment: Fungicidal activity against Candida albicans sc5314; assay type: functional
Candida albicans [14] = experiment: Antifungal activity against Candida albicans by CLSI based broth microdilution method; assay type: functional
[Candida] zeylanoides = Antifungal activity against Candida zeylanoides by CLSI based broth microdilution method; assay type: functional; conditions: Dujonia zeylanoides
Nakaseomyces glabratus = experiment: Antifungal activity against Candida glabrata by CLSI based broth microdilution method; assay type: functional
Aspergillus fumigatus = experiment: Antifungal activity against Aspergillus fumigatus by CLSI based broth microdilution method; assay type: functional
Candida albicans [15] = experiment: Antifungal activity against FCZ-resistant Candida albicans CaR by CLSI based broth microdilution method; assay type: functional
Candida albicans [16] = experiment: Antifungal activity against Candida albicans sc5314 by CLSI based broth microdilution method; assay type: functional
[17] = Metabolic stability in mouse liver microsome assessed as clearance; assay type: ADME; conditions: liver microsomes, read-out: CLH
Candida albicans [18] = experiment: Antibiofilm activity against Candida albicans CPCC400616 assessed as sessile minimum inhibitory concentration measured after 24 hrs by XTT assay; assay type: functional
Candida albicans [19] = experiment: Antibiofilm activity against Candida albicans SC5314 assessed as sessile minimum inhibitory concentration measured after 6 hrs by XTT assay; assay type: functional
Candida albicans [20] = experiment: Antibiofilm activity against Candida albicans CPCC400616 assessed as sessile minimum inhibitory concentration measured after 1.5 hrs by XTT assay; assay type: functional
Candida albicans [21] = experiment: Antibiofilm activity against Candida albicans SC5314 assessed as sessile minimum inhibitory concentration measured after 3 hrs by XTT assay; assay type: functional
Candida albicans [22] = experiment: Antibiofilm activity against Candida albicans SC5314 assessed as sessile minimum inhibitory concentration measured after 24 hrs by XTT assay; assay type: functional
[23] = Cytotoxicity against human MDA-MB-231 cells by MTT assay; assay type: toxicity, cell-based
[24] = Metabolic stability in mouse liver microsome assessed as half life; assay type: ADME; conditions: liver microsomes
Candida albicans [25] = experiment: Antibiofilm activity against Candida albicans SC5314 assessed as sessile minimum inhibitory concentration measured after 1.5 hrs by XTT assay; assay type: functional
Candida albicans [26] = experiment: Antibiofilm activity against Candida albicans CPCC400616 assessed as sessile minimum inhibitory concentration measured after 6 hrs by XTT assay; assay type: functional
Candida albicans [27] = experiment: Antibiofilm activity against Candida albicans CPCC400616 assessed as sessile minimum inhibitory concentration measured after 3 hrs by XTT assay; assay type: functional

For `COc1cccc2c1C(=O)c1c(O)c3c(c(O)c1C2=O)C[C@@](O)(C(=O)CO)C[C@@H]3O[C@H]1C[C@H](N)[C@H](O)[C@H](C)O1` [DOXORUBICIN], the IC50 [1] was < 0.125 µM.

For `CC(=O)O[C@H]1C(=O)[C@@]2(C)[C@H]([C@H](OC(=O)c3ccccc3)[C@]3(O)C[C@H](OC(=O)[C@H](O)[C@@H](NC(=O)c4ccccc4)c4ccccc4)C(C)=C1C3(C)C)[C@]1(OC(C)=O)CO[C@@H]1C[C@@H]2O` [PACLITAXEL], the IC50 [2] was < 0.025 µM.

In the case of `c1ccc(C(Cn2ccnc2)[Se]C(Cn2ccnc2)c2ccccc2)cc1` (stereo not drawn), the MFC (Candida albicans [3]) is reported as 64 µg/mL (≈ 152 µM), the MFC (Candida albicans [4]) is reported as > 64 µg/mL and the MFC (Candida albicans [5]) is reported as > 64 µg/mL. It also gave an MIC (Pichia kudriavzevii) of 16 µg/mL (≈ 38 µM), an MIC (Candida albicans [6]) of 4 µg/mL (≈ 9.49 µM) and an MFC (Candida albicans [7]) of 16 µg/mL (≈ 38 µM). The MFC (Candida albicans [8]) was 16 µg/mL (≈ 38 µM), the MIC (Candida albicans [9]) was 0.5 µg/mL (≈ 1.19 µM) and the MIC (Cryptococcus neoformans) was 64 µg/mL (≈ 152 µM). For the same molecule, the MIC (Candida albicans [10]) was 8 µg/mL (≈ 19 µM), the MIC (Candida albicans [11]) was 8 µg/mL (≈ 19 µM) and the MIC (Candida parapsilosis) was 4 µg/mL (≈ 9.49 µM). The MFC (Candida albicans [12]) was 8 µg/mL (≈ 19 µM), the MFC (Candida albicans [13]) was 8 µg/mL (≈ 19 µM) and the MIC (Candida albicans [14]) was 8 µg/mL (≈ 19 µM). For the same molecule, the MIC ([Candida] zeylanoides) was 4 µg/mL (≈ 9.49 µM), the MIC (Nakaseomyces glabratus) was 16 µg/mL (≈ 38 µM) and the MIC (Aspergillus fumigatus) was > 64 µg/mL. The MIC (Candida albicans [15]) was 4 µg/mL (≈ 9.49 µM) and the MIC (Candida albicans [16]) was 4 µg/mL (≈ 9.49 µM).

For `Fc1ccc(C(Cn2ccnc2)[Se]C(Cn2ccnc2)c2ccc(F)cc2F)c(F)c1` (stereo not drawn), the MFC (Candida albicans [3]) was 32 µg/mL (≈ 64.9 µM), the CLint scaled [17] was 558 mL/min/kg and the MFC (Candida albicans [4]) was > 64 µg/mL. The MFC (Candida albicans [5]) was > 64 µg/mL, the MIC50 (Candida albicans [18]) was 4 µg/mL (≈ 8.11 µM) and the MIC80 (Candida albicans [18]) was 64 µg/mL (≈ 130 µM). For the same molecule, the MIC (Pichia kudriavzevii) was 32 µg/mL (≈ 64.9 µM), the MIC (Candida albicans [6]) was 8 µg/mL (≈ 16.2 µM) and the MIC50 (Candida albicans [19]) was 4 µg/mL (≈ 8.11 µM). It also gave an MIC80 (Candida albicans [19]) of 16 µg/mL (≈ 32.4 µM), an MFC (Candida albicans [7]) of 8 µg/mL (≈ 16.2 µM) and an MFC (Candida albicans [8]) of 8 µg/mL (≈ 16.2 µM). It also gave an MIC50 (Candida albicans [20]) of 0.25 µg/mL (≈ 0.507 µM), an MIC80 (Candida albicans [20]) of 2 µg/mL (≈ 4.05 µM) and an IC50 [2] of 1.45 µM. The MIC50 (Candida albicans [21]) was 1 µg/mL (≈ 2.03 µM), the MIC80 (Candida albicans [21]) was 4 µg/mL (≈ 8.11 µM) and the MIC50 (Candida albicans [22]) was 1 µg/mL (≈ 2.03 µM). The MIC80 (Candida albicans [22]) was 4 µg/mL (≈ 8.11 µM), the MIC (Candida albicans [9]) was 1 µg/mL (≈ 2.03 µM) and the MIC (Cryptococcus neoformans) was 16 µg/mL (≈ 32.4 µM). For the same molecule, the MIC (Candida albicans [10]) was 4 µg/mL (≈ 8.11 µM), the MIC (Candida albicans [11]) was 4 µg/mL (≈ 8.11 µM) and the MIC (Candida parapsilosis) was 8 µg/mL (≈ 16.2 µM). It also gave an IC50 [23] of 8.26 µM, an MFC (Candida albicans [12]) of 8 µg/mL (≈ 16.2 µM) and a half-life [24] of 9.8 min. The MIC50 (Candida albicans [25]) was 1 µg/mL (≈ 2.03 µM), the MIC80 (Candida albicans [25]) was 4 µg/mL (≈ 8.11 µM) and the IC50 [1] was 4.61 µM. It also gave an MFC (Candida albicans [13]) of 8 µg/mL (≈ 16.2 µM), an MIC50 (Candida albicans [26]) of 2 µg/mL (≈ 4.05 µM) and an MIC80 (Candida albicans [26]) of 16 µg/mL (≈ 32.4 µM). It also gave an MIC (Candida albicans [14]) of 4 µg/mL (≈ 8.11 µM), an MIC ([Candida] zeylanoides) of 2 µg/mL (≈ 4.05 µM) and an MIC (Nakaseomyces glabratus) of 64 µg/mL (≈ 130 µM). The MIC (Aspergillus fumigatus) was > 64 µg/mL, the MIC50 (Candida albicans [27]) was 1 µg/mL (≈ 2.03 µM) and the MIC80 (Candida albicans [27]) was 8 µg/mL (≈ 16.2 µM). For the same molecule, the MIC (Candida albicans [15]) was 2 µg/mL (≈ 4.05 µM) and the MIC (Candida albicans [16]) was 2 µg/mL (≈ 4.05 µM).
